Experimental data as given in US20250320203A1, “4-(3H-PYRAZOLO[4,3-F]QUINOLIN-7-YL)-N-(2-(DIMETHYLAMINO)ETHYL)BENZAMIDE- OR HYDROXAMIC ACID COMPOUNDS, COMPOSITIONS, AND METHODS OF USE” (Purdue Research Foundation, priority 2022, published 2025).

Columns and labels:
Molm-14 cells (FLT3-ITD) = test: AML cell line growth inhibition (CellTiter-Blue), 50 nM; format: cell-based; conditions: Homo sapiens, 50 nM inhibitor conc., means of triplicates, read-out: Percent Inhibition (%) Molm-14 growth
Protocol: (§1) With the amide kinase inhibitor library established, kinase inhibition and AML cell line (Molm-14, which harbors FLT3-ITD) growth inhibition were analyzed (Table 1). More specifically, Haspin and FLT3 inhibition were evaluated in-house via ADP Glo Kinase Assay (Promega, Madison, WI). […] Values reported are means of triplicates.
More specifically, cells were cultured to confluence in RPMI medium supplemented with 10% fetal bovine serum and 1× Penicillin-Streptomycin (Gibco™). Cells were plated at 5,000 cells/well in 96 well plates. After 24-hour incubation at 37° C. in a 5% CO2 incubator, compounds diluted in the same media were added to the indicated final concentration and allowed to incubate at 37° C. in a 5% CO2 incubator for 72 hours. Viability was determined using CellTiter-Blue® Cell Viability Assay (Promega, Madison, WI) with absorbance readings at 570 nm performed on a Cytation™ 5 Cell Imaging Multi-Mode Reader (BioTek) 3 hours after addition. Appropriate vehicle and cell-free controls were included. GI50 readings were confirmed by two scientists on two separate days.

haspin = molecular target: T1, haspin (Homo sapiens, UniProt Q8TF76); test: ADP Glo Kinase Assay, haspin, 50 nM inhibitor; format: biochemical; conditions: 50 nM inhibitor conc.; means of triplicates; read-out: Percent Inhibition (%) Haspin
T1 sequence (Q8TF76 1-798): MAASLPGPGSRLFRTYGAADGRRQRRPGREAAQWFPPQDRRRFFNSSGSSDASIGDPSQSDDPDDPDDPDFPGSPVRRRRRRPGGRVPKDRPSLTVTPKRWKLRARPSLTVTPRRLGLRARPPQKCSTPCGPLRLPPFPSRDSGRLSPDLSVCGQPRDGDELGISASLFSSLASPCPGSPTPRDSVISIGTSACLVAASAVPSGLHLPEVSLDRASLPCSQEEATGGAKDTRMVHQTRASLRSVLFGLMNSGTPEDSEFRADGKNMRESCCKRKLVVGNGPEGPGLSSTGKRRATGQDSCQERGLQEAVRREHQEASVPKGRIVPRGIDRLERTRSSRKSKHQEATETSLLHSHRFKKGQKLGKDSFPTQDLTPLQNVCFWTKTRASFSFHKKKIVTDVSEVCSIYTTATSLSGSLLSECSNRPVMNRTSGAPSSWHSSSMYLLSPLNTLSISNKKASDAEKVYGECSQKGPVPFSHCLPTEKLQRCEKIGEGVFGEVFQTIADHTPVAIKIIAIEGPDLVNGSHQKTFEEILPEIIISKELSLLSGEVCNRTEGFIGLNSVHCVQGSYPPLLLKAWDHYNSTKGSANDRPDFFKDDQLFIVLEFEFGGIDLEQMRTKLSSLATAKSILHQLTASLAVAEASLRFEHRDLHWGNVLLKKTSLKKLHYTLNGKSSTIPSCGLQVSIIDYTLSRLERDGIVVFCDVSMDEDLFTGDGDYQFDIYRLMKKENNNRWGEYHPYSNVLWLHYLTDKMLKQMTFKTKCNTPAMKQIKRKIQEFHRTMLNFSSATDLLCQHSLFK
Protocol: as §1
(§2) Briefly, the ADP-Glo Kinase Assay Kit was used to determine inhibition of haspin. Kinase Buffer (SignalChem Cat #K01-09; 25 mM MOPS, pH 7.2, 12.5 mM β-glycerol-phosphate, 25 mM MgCl2, 2 mM EDTA) was supplemented with dithiothreitol (DTT) (0.2 mM) and bovine serum albumin (BSA) (40 μg/mL) immediately prior to use. Reaction volumes of 5 μL containing 9 ng/μL kinase, 10 μM ATP, 50 nM inhibitor, and the appropriate peptide substrate (20 μM) were incubated for 3 hours, and then quenched with an equal volume (5 μL) of GLO reagent. After 40 minutes, 10 μL DET reagent was added and incubated for 1 hour before visualization on a Cytation™ 5 Cell Imaging Multi-Mode Reader (BioTek).

[1] = system: histone H3 (Thr3) phosphorylation by haspin; test: Western blot, histone H3 (Thr3) phosphorylation by haspin in Molm-14 cells; format: cell-based, human; conditions: 24 hours, HSK205 5, 20 or 100 nM, gilteritinib 100 nM
Protocol: Whether Compound HSK205 does indeed inhibit haspin in AML cells was then evaluated, and immunoblotting was performed to confirm inhibition of histone H3 (Thr3)phosphorylation by haspin (FIG. 13A). […] The samples were subsequently analyzed for the phosphorylation of histone H3 (Thr3).
Acute myeloid leukemia cells (Molm-14) were incubated with various concentrations of compound as specified. Cells were collected and lysed, and protein concentrations were quantified relative to BSA standards. After protein denaturation, proteins were separated via SDS-PAGE electrophoresis and transferred to NC membranes. After blocking, overnight incubation with specific primary antibodies, and room temperature incubation for 2 hours with peroxidase-conjugated secondary antibodies, peroxidase activity was detected with SuperSignal West Pico reagents (Thermo Scientific) using a CCD camera LAS-4000 (Fujifilm). Bands were normalized using housekeeping gene, Actin. Values reported represent the means of triplicates and error bars represent SD. All specific antibodies were purchased from Cell Signaling.

FLT3 = molecular target: T2, FLT3 (Homo sapiens, UniProt P36888); test: ADP Glo Kinase Assay, FLT3, 50 nM inhibitor; format: biochemical; conditions: 50 nM inhibitor conc.; means of triplicates; read-out: Percent Inhibition (%) FLT3
T2 sequence (P36888 27-993): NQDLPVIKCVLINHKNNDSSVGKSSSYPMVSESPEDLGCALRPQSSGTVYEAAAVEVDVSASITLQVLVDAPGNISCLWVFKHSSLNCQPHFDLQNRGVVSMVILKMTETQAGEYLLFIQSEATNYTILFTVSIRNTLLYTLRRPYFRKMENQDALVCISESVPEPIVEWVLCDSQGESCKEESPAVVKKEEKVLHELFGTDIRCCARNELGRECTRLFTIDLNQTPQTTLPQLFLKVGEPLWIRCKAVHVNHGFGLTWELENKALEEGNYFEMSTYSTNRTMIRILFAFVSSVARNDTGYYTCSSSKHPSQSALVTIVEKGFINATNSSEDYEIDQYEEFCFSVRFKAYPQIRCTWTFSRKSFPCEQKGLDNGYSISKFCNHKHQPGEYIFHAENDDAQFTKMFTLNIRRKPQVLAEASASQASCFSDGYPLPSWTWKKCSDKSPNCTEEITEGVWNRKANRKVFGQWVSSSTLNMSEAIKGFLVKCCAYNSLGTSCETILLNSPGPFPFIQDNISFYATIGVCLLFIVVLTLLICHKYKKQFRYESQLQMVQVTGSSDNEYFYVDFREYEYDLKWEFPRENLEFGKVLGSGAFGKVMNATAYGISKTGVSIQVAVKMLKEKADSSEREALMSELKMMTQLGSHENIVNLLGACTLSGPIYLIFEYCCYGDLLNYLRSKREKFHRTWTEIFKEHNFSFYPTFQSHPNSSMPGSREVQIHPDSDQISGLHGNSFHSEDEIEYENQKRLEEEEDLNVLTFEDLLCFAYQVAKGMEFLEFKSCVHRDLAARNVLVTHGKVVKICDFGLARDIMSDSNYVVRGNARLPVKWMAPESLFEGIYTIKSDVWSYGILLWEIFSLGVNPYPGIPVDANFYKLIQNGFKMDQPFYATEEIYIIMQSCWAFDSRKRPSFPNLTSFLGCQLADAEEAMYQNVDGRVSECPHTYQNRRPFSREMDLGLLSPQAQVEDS
Protocol: as §1, §2

`CCc1nc(C(N)=O)c(Nc2ccc(N3CCC(N4CCN(C)CC4)CC3)c(OC)c2)nc1NC1CCOCC1` [gilteritinib, reference compound] was tested, and the inhibition at 0.05 µM (Molm-14 cells (FLT3-ITD)) was 87%, the inhibition at 0.05 µM (haspin) was 11% and the “phosphorylation of histone H3 (Thr3)” value [1] was “did not display haspin inhibition”. The inhibition at 0.05 µM (FLT3) was 93%.
